Experimental data published in patent publication US20240010981A1, “COMPOSITIONS AND METHODS FOR INCREASING STEM CELL FUNCTION” (SOCIETE DES PRODUITS NESTLE S.A., priority 2020, published 2024).
“Also recorded” adds a separate entry of the source.

Key:
[1] = tested on: murine HSCs (LKS CD150+CD48−); assay: Mitochondrial membrane potential (TMRM staining, flow cytometry) of cultured murine HSCs; type: cell-based, mouse; details: compared to the Basal condition; day 3 of culture; NR 500 uM, Vit B12 (MC) 100 uM
Protocol: Flow cytometry analysis was performed on freshly isolated bone marrow (BM) from C57BI6 mice. BM was extracted from crushed femora and tibia. Cell suspension was filtered through a 70 μm cell strainer and erythroid cells were eliminated by incubation with red blood cell lysis buffer (eBioscences). Isolation and stains were performed in ice-cold PBS 1 mM EDTA. Lineage positive cells were then removed with a magnetic lineage depletion kit (BD biosciences). Cell suspensions were then stained with specific antibodies for the stem cell compartment and sorted by FACS (BD FACS Aria III) into 1.5 ml Eppendorf tubes.
The following antibodies were used in this study: rat mAbs against cKit (2B8), Sca1 (D7), CD150 (TC-15-12F12.2), CD48 (HM48-1). The antibodies were purchased from Biolegend, eBiosciences and BD. A mixture of biotinylated mAbs against CD3, CD11b, CD45R/B220, Ly-6G, Ly-6C and TER-119 was used as lineage marker (“lineage cocktail”) and was purchased from BD. DAPI or propidium iodine (PI) staining was used for live/dead cell discrimination.
Murine HSCs were sorted into 1.5 ml Eppendorf tubes and were cultured in Stemline II (SIGMA) supplemented with 100 ng/ml SCF (R&D) and 2 ng/ml Flt3 (R&D). This was defined as the basal condition. Different concentrations as indicated of UroA, NR and Vit B12 (MC) were added in specific wells. NR was supplemented every 24 hours.
Mouse HSCs already in culture were incubated at 37° C. for 1 hour with 200 nM tetramethylrhodamine methyl ester (TMRM; Invitrogen) and 100 nM Mitotracker green. Cells were then washed with FACS buffer and analysed by flow cytometry on a BD LSR II.
Freshly FACS sorted mHSCs (LKS CD150+CD48−) were cultured in basal media (Stemline+SCF+FLT3L) supplemented with UroA, NR and MC in specific wells (as indicated). Cells were harvested at day 3 and stained with tetramethylrhodamine methyl ester (TMRM; to measure mitochondria membrane potential) and Mitotracker (to measure mitochondrial mass) and analysed by flow cytometry.

human HSCs = details: culture media supplemented with nicotinamide riboside, primary and secondary recipient humanised mice; cited from earlier work

Structure (SMILES) | MFI TMRM (Mean Fluorescence Intensity) [1] | proportion of cells in the TMRM low gate [1] | levels of engraftment (human HSCs)
C/C1=C2/[N-][C@H]([C@H](CC(N)=O)[C@@]2(C)CCC(=O)NC[C@@H](C)OP(=O)([O-])O[C@H]2[C@@H](O)[C@@H](n3cnc4cc(C)c(C)cc43)O[C@@H]2CO)[C@]2(C)N=C(/C(C)=C3N=C(/C=C4N=C1[C@@H](CCC(N)=O)C\4(C)C)[C@@H](CCC(N)=O)[C@]\3(C)CC(N)=O)[C@@H](CCC(N)=O)[C@]2(C)CC(N)=O.[CH3-].[Co] [MC, methylcobalamine] | significantly decreased; also recorded: decreases | significantly increased; also recorded: increases | –
NC(=O)c1ccc[n+]([C@@H]2O[C@H](CO)[C@@H](O)[C@H]2O)c1 [NR, Nicotinamide riboside] | significantly decreased; also recorded: decreases | significantly increased; also recorded: increases | significantly higher
